Assay results as given in EPA's ToxValDB 9.5 (doi:10.2903/j.efsa.2007.106r).
In brackets after ≈: the same amount, converted by molar mass. Several values for one entry are separate records, joined by “and”; a condition that tells them apart may be missing. Equal values may be shown once.

How the values were obtained:
Colinus virginianus = details: for NOEL / NOEC: reproduction developmental
Anas platyrhynchos = details: for NOEL / NOEC: reproductive
Rattus norvegicus = details: for LD50: acute, oral, mortality
Canidae = details: chronic; duration: 1 years; Dog Other; clinical chemistry
Mus musculus = details: acute, oral, mortality
Apis mellifera = details: acute, mortality
Daphnia magna = details: chronic/long-term
Folsomia candida = details: chronic/long-term
Bibionidae = details: chronic/long-term
Aphidius rhopalosiphi = assay: LR50; higher = less toxic; details: chronic/long-term; mortality
Typhlodromus pyri = assay: LR50; higher = less toxic; details: not reported; mortality
[1] = acute, duration: 5 days, oral, diet, mortality

OC(Cc1ccccc1Cl)(Cn1cncn1)C1(Cl)CC1 (stereo not drawn)
LD50 (Colinus virginianus; acute, oral, diet, mortality): > 297 mg/kg-day | LD50 (Colinus virginianus; acute, oral, mortality): > 2000 mg/kg | NOEL (Colinus virginianus; duration: 20 weeks, oral, diet): 14.8 mg/kg-day | NOEL (Anas platyrhynchos; duration: 20 weeks, oral, feed): 63 mg/kg-day | NOAEL (Rattus norvegicus; chronic, organ weight): 1.1 mg/kg-day | NOAEL (Rattus norvegicus; developmental, development): 1 mg/kg-day

OC(Cc1ccccc1Cl)(Cn1[nH]cnc1=S)C1(Cl)CC1 (stereo not drawn) [Prothioconazole]
LC50 (Oncorhynchus mykiss; acute, mortality): 1.83 µg/mL (≈ 5.32 µM) | NOEC (Oncorhynchus mykiss; chronic/long-term, other): 0.308 mg/L | LC50 (Tagia sp.; acute, mortality): > 1000 mg/kg | NOEC (Tagia sp.; chronic/long-term): 1.33 mg/kg | NOAEL (Canidae): 5 mg/kg-day | LC50 (Colinus virginianus; [1]): > 5000 mg/kg and 4090 mg/kg | LD50 (Colinus virginianus; [1]): > 1410 mg/kg-day | LD50 (Colinus virginianus; acute, oral, mortality): > 2000 mg/kg | NOEC (Colinus virginianus; duration: 20 weeks): 173 mg/kg-day | NOEL (Colinus virginianus; duration: 20 weeks): 14.8 mg/kg-day | NOEC (Colinus virginianus; duration: 22 weeks): ≥ 1000 mg/kg-day | NOEL (Colinus virginianus; duration: 22 weeks): ≥ 86 mg/kg-day | NOEC (Anas platyrhynchos; duration: 20 weeks): ≥ 500 mg/kg | NOEL (Anas platyrhynchos; duration: 20 weeks): 63 mg/kg-day | NOEC (Anas platyrhynchos; duration: 21 weeks): 700 mg/kg | NOEL (Anas platyrhynchos; duration: 21 weeks): 78 mg/kg-day | LD50 (Anas platyrhynchos; short-term, duration: 5 days, oral, feed, mortality): > 2460 mg/kg-day | LC50 (Anas platyrhynchos; short-term, duration: 5 days, oral, feed, reproduction): > 5000 mg/kg | LD50 (Mus musculus; F): 3460 mg/kg | LD50 (Mus musculus; M): 2240 mg/kg-day | LD50 (Rattus norvegicus; F): 2510 mg/kg-day | LD50 (Rattus norvegicus; M/F): > 6200 mg/kg-day | LD50 (Rattus norvegicus; M): 2810 mg/kg-day | NOAEL (Rattus norvegicus; chronic, duration: 2 years, organ weight): 5 mg/kg-day | NOAEL (Rattus norvegicus; developmental, development): 20 mg/kg-day | LD50 (Apis mellifera; dermal): > 200 µg/piece | LD50 (Apis mellifera; oral, unspecified): > 71 µg/piece | NOEC (Daphnia magna): 0.56 mg/L | NOEC (Folsomia candida): 64 mg/kg | NOEC (Bibionidae): 9.14 mg/L | LR50 (Aphidius rhopalosiphi): 140 g/ha | LR50 (Typhlodromus pyri): 18.7 g/ha
